Experiments:
Cytosol aminopeptidase = target: T1, Cytosol aminopeptidase (Sus scrofa, UniProt P28839); assay: Inhibition of pig kidney cytosolic Leucyl aminopeptidase
T1 sequence (P28839 whole entry): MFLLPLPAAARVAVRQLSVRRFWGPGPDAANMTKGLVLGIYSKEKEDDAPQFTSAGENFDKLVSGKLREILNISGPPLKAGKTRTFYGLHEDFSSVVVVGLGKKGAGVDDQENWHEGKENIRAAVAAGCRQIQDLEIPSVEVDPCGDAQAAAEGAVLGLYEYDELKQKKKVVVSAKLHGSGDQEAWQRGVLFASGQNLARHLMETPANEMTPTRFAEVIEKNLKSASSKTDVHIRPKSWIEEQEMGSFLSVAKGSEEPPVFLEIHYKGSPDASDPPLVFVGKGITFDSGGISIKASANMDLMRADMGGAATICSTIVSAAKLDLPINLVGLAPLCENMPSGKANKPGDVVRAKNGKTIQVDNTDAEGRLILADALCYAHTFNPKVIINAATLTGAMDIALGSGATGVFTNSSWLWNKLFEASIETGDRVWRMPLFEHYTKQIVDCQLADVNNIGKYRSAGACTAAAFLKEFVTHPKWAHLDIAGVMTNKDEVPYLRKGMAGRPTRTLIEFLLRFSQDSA

[1] = Inhibition of bovine pancreas trypsin; design: species or system Bos taurus

Row | Structure (SMILES) | IC50 (Cytosol aminopeptidase) | IC50 [1]
1 | O=c1cc(-c2ccc(O)c(O)c2)oc2ccccc12 | 35.1 µM | 
2 | O=c1cc(-c2ccc(O)cc2)oc2cc(O)cc(O)c12 [APIGENIN] |  | 142 µM
3 | O=c1c(O)c(-c2ccc(O)cc2)oc2cc(O)cc(O)c12 [KAEMPFEROL] |  | 106 µM
4 | O=c1cc(-c2ccc(O)c(O)c2)oc2cc(O)cc(O)c12 [LUTEOLIN] | 49.6 µM | 35.3 µM
5 | O=c1c(O)c(-c2ccc(O)cc2O)oc2cc(O)cc(O)c12 [MORIN] |  | 111 µM
6 | O=c1c(O)c(-c2cc(O)c(O)c(O)c2)oc2cc(O)cc(O)c12 [MYRICETIN] |  | 10.2 µM
7 | O=c1c(O)c(-c2ccc(O)c(O)c2)oc2cc(O)cc(O)c12 [QUERCETIN] | 34.3 µM | 7.1 µM
8 | COc1cc(C2Oc3c(O)cc([C@H]4Oc5cc(O)cc(O)c5C(=O)[C@@H]4O)cc3C2CO)ccc1O (stereo not given in full) [SILICRISTIN] |  | 144 µM

Reference: ChEMBL document CHEMBL1159252, “Flavonoid inhibitors of trypsin and leucine aminopeptidase: a proposed mathematical model for IC50 estimation” (J Nat Prod, 1995)
